Assay results as given in article PMC12059629, “N-Terminal domain homologs of the orange carotenoid protein increase quenching of cyanobacterial phycobilisomes” (Plant Physiology, 2024).

Molecular target: T1, HCP4 (AnHCP4, holo-HCP4) (Nostoc sp. PCC 7120 = FACHB-418, UniProt Q8YMJ2)
T1 construct: gene all4941; C-terminal His-tag (pCDF-all4941-Ctag), expressed in E. coli BL21(DE3) with pAC-CANthipi; holo separated from apo on MonoQ
T1 sequence (Q8YMJ2 1-171): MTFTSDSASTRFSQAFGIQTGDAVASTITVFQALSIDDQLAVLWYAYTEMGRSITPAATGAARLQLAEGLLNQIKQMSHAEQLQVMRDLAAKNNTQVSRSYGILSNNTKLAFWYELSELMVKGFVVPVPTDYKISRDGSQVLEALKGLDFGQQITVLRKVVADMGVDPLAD
Experiment: holoprotein purified from carotenoid-producing E. coli; separated from apoprotein by anion exchange; absorbance at […] nm
Type: binding
Settings: 50 mM Tris pH 8; 1:1 HCP4:CAN ratio used for quantification

Structure (SMILES): CC1=C(/C=C/C(C)=C/C=C/C(C)=C/C=C/C=C(C)/C=C/C=C(C)/C=C/C2=C(C)C(=O)CCC2(C)C)C(C)(C)CCC1=O [canthaxanthin]
- holoprotein purified from carotenoid-producing E. coli; separated from apoprotei: For HCP4, the holoprotein was eluted in the flow through and column wash
